From ChEMBL document CHEMBL4229455, “Synthesis and anticancer activity of novel bisindolylhydroxymaleimide derivatives with potent GSK-3 kinase inhibition” (Bioorg Med Chem, 2018)
pIC50: −log10 of the molar value.

How the values were obtained:
[1] = target: Serine/threonine-protein kinase pim-1 (Homo sapiens, UniProt P11309); experiment: Inhibition of recombinant full length human PIM1 expressed in bacteria assessed as residual activity at 10 uM using histone H1 as substrate in presence of [gamma-33P]ATP
Serine/threonine-protein kinase pim-1, sequence (P11309 whole entry, looked up): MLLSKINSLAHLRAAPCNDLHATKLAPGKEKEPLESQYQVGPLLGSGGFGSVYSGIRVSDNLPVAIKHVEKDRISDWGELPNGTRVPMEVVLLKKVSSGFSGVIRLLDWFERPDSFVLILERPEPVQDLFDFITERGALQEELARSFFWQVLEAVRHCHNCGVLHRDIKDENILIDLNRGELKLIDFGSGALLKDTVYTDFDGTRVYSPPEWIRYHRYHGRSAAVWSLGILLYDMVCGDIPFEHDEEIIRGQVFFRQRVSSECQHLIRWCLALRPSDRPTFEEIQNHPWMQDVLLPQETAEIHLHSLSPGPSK

OVCAR-8 = experiment: Cytotoxicity against human OVCAR8 cells assessed as cell growth at 10 uM after 48 hrs by SRB assay relative to control; assay type: functional; details: OVCAR-8, 48 h, read-out: Activity
ACHN = experiment: Cytotoxicity against human ACHN cells assessed as cell growth at 10 uM after 48 hrs by SRB assay relative to control; assay type: functional; details: read-out: Activity
PC-3 = experiment: Cytotoxicity against human PC3 cells assessed as cell growth at 10 uM after 48 hrs by SRB assay relative to control; assay type: functional; details: PC-3, 48 h, read-out: Activity
SK-MEL-5 = experiment: Cytotoxicity against human SK-MEL-5 cells assessed as cell growth at 10 uM after 48 hrs by SRB assay relative to control; assay type: functional; details: SK-MEL-5, 48 h, read-out: Activity
Sus scrofa domesticus = organism: Sus scrofa domesticus; experiment: Inhibition of domestic porcine brain full length […] assessed as residual activity at 10 uM using RRKHAAIGSpAYSITA as substrate in presence of [gamma-33P]ATP
U-251 = experiment: Cytotoxicity against human U251 cells assessed as cell growth at 10 uM after 48 hrs by SRB assay relative to control; assay type: functional; details: U-251, 48 h, read-out: Activity
NCI-H522 = experiment: Cytotoxicity against human NCI-H522 cells assessed as cell growth at 10 uM after 48 hrs by SRB assay relative to control; assay type: functional; details: NCI-H522, 48 h, read-out: Activity
UACC-257 = experiment: Cytotoxicity against human UACC257 cells assessed as cell growth at 10 uM after 48 hrs by SRB assay relative to control; assay type: functional; details: UACC-257, 48 h, read-out: Activity
[2] = target: Receptor-interacting serine/threonine-protein kinase 3 (Homo sapiens, UniProt Q9Y572); experiment: Inhibition of recombinant full length human RIPK3 expressed in baculovirus infected Sf9 insect cells using MBP as substrate in presence of [gamma-33P]ATP
Receptor-interacting serine/threonine-protein kinase 3, sequence (Q9Y572 whole entry): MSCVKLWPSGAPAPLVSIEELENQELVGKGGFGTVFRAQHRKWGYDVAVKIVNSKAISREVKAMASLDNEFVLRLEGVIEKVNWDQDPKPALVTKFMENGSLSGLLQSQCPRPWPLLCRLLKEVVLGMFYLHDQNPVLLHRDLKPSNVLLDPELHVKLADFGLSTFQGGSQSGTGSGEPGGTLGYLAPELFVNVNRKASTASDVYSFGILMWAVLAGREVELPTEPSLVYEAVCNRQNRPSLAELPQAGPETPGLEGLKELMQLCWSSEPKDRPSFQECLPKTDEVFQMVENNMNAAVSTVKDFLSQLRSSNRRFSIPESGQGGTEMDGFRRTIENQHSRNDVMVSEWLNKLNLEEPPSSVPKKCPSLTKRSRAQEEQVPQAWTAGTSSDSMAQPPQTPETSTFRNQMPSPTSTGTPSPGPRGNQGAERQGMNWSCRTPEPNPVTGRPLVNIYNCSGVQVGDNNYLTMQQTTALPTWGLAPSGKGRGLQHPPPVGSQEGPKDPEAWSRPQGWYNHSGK

IGROV-1 = experiment: Cytotoxicity against human IGROV1 cells assessed as cell growth at 10 uM after 48 hrs by SRB assay relative to control; assay type: functional; details: IGROV-1, 48 h, read-out: Activity
NCI-H322M = experiment: Cytotoxicity against human NCI-H322M cells assessed as cell growth at 10 uM after 48 hrs by SRB assay relative to control; assay type: functional; details: read-out: Activity
HCT-116 = experiment: Cytotoxicity against human HCT116 cells assessed as cell growth at 10 uM after 48 hrs by SRB assay relative to control; assay type: functional; details: HCT-116, 48 h, read-out: Activity
UACC-62 = experiment: Cytotoxicity against human UACC62 cells assessed as cell growth at 10 uM after 48 hrs by SRB assay relative to control; assay type: functional; details: UACC-62, 48 h, read-out: Activity
OVCAR-5 = experiment: Cytotoxicity against human OVCAR5 cells assessed as cell growth at 10 uM after 48 hrs by SRB assay relative to control; assay type: functional; details: OVCAR-5, 48 h, read-out: Activity
[3] = target: CDK9/cyclin T1 (Homo sapiens) (UniProt O60563+P50750); experiment: Inhibition of recombinant full length human CDK9/cyclin T expressed in baculovirus infected Sf9 insect cells assessed as residual activity at 10 uM using YSPTSPSYSPTSPSYSPTSPSKKKK as substrate in presence of [gamma-33P]ATP
[4] = target: Glycogen synthase kinase-3 (Sus scrofa) (UniProt B2LUN4+I6LNT8); experiment: Inhibition of domestic porcine brain full length GSK-3alpha/beta assessed as residual activity at 10 uM using GS-1 as substrate in presence of [gamma-33P]ATP; details: Sus scrofa domesticus
OVCAR-4 = experiment: Cytotoxicity against human OVCAR4 cells assessed as cell growth at 10 uM after 48 hrs by SRB assay relative to control; assay type: functional; details: OVCAR-4, 48 h, read-out: Activity
KM12 = experiment: Cytotoxicity against human KM12 cells assessed as cell growth at 10 uM after 48 hrs by SRB assay relative to control; assay type: functional; details: KM12, 48 h, read-out: Activity
CDK9/cyclin T1 = CDK9/cyclin T1 (Homo sapiens, UniProt P50750); experiment: Inhibition of recombinant full length human CDK9/cyclin T expressed in baculovirus infected Sf9 insect cells using YSPTSPSYSPTSPSYSPTSPSKKKK as substrate in presence of [gamma-33P]ATP
CDK9/cyclin T1, sequence (O60563 whole entry): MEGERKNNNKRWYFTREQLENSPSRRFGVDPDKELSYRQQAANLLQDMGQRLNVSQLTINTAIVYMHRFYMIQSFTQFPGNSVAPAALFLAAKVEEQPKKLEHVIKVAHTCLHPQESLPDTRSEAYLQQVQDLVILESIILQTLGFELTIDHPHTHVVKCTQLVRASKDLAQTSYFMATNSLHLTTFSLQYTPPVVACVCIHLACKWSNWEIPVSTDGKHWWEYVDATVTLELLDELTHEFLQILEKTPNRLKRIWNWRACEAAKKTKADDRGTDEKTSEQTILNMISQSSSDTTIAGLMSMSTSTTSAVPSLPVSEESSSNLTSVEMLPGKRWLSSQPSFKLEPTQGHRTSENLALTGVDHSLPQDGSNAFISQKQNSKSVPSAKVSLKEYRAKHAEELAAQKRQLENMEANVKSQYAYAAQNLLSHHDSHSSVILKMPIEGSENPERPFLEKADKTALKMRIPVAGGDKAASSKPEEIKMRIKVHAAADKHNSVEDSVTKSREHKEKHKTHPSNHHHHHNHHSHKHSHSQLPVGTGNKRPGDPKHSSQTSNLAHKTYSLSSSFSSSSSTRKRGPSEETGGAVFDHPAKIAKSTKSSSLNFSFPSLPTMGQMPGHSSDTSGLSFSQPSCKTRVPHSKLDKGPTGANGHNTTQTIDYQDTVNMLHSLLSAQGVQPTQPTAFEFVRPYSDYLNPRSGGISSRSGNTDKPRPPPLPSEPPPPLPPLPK
CDK9/cyclin T1, sequence (P50750 whole entry): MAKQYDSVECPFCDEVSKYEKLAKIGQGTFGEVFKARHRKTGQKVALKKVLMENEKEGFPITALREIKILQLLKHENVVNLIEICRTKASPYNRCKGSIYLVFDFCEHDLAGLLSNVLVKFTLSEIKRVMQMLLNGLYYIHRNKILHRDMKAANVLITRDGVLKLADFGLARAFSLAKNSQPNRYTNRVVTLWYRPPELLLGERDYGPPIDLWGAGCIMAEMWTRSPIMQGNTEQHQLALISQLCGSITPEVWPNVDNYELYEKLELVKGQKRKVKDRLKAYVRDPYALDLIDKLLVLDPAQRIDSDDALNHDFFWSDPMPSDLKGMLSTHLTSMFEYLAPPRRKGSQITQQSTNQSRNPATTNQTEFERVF

SF-295 = experiment: Cytotoxicity against human SF295 cells assessed as cell growth at 10 uM after 48 hrs by SRB assay relative to control; assay type: functional; details: SF-295, 48 h, read-out: Activity
EKVX = experiment: Cytotoxicity against human EKVX cells assessed as cell growth at 10 uM after 48 hrs by SRB assay relative to control; assay type: functional; details: read-out: Activity

| Compound | Activity [1] | growth at 10 µM (OVCAR-8) | growth at 10 µM (ACHN) | growth at 10 µM (PC-3) | growth at 10 µM (SK-MEL-5) | Activity (Sus scrofa domesticus) | growth at 10 µM (U-251) | growth at 10 µM (NCI-H522) | pIC50 [2] | growth at 10 µM (IGROV-1) | growth at 10 µM (NCI-H322M) | growth at 10 µM (HCT-116) | growth at 10 µM (UACC-62) | growth at 10 µM (OVCAR-5) | Activity [3] | Activity [4] | growth at 10 µM (OVCAR-4) | growth at 10 µM (KM12) | pIC50 (CDK9/cyclin T1) | growth at 10 µM (SF-295) | also measured |
| --- | --- | --- | --- | --- | --- | --- | --- | --- | --- | --- | --- | --- | --- | --- | --- | --- | --- | --- | --- | --- | --- |
| Cn1cc(C2=C(c3cn(CCCCCC(=O)O)c4ccccc34)C(=O)N(O)C2=O)c2ccccc21 | 64% | 87.7% | 92.9% | 76.6% | 97.8% | 80% | 102% | 88.3% | < 5.00 | 103% | 99.8% | 98.4% | 99% | 96.3% | 15% | 2% | 94.5% | 99.3% | 6.15 | 102% | growth at 10 µM (UACC-257): 102% |
| Cn1cc(C2=C(c3c[nH]c4ccccc34)C(=O)N(O)C2=O)c2ccccc21 | 8% | 95.6% | 77.9% | 78.7% | 72% | 40% | 98.5% | 56.3% | < 5.00 | 83% | 81.9% | 83.3% | 77.4% | 95% | 19% | -18% | 103% | 81.7% | 5.70 | 88.8% |  |
| CC(C)n1cc(C2=C(c3c[nH]c4ccccc34)C(=O)N(O)C2=O)c2ccccc21 | 24% | 107% | 99.6% | 99.7% | 98.5% | 72% | 100% | 76.4% | < 5.00 | 111% | 103% | 85.4% | 90% | 105% | 44% | 2% | 111% | 88.3% | < 5.00 | 99.7% |  |
| CC(C)n1cc(C2=C(c3cn(C)c4ccccc34)C(=O)N(O)C2=O)c2ccccc21 | 28% | 94.8% | 88% | 88.4% | 76.2% | 98% | 98.8% | 84.7% | < 5.00 | 96.2% | 91.7% | 85.4% | 78.2% | 90.3% | -7% | -16% | 99.6% | 87.4% | 5.82 | 101% |  |
| N#CCCCCCn1cc(C2=C(c3cn(CCCCCC#N)c4ccccc34)C(=O)NC2=O)c2ccccc21 | 54% | 89.9% | 87% | 58% | 78.7% | 108% | 83.8% | 88.7% | < 5.00 | 124% | 103% | 65.9% | 99.3% | 128% | 9% | 11% | 81.2% | 81% | 6.38 | 66.2% | growth at 10 µM (UACC-257): 136%; growth at 10 µM (EKVX): 86.5% |
| Cn1cc(C2=C(c3cn(CCCCCC#N)c4ccccc34)C(=O)N(O)C2=O)c2ccccc21 | 52% | 100% | 97.4% | 80.5% | 78.8% | 88% | 102% |  | < 5.00 | 93.8% | 98% | 85.1% | 82% | 117% | 17% | 8% | 116% | 88.2% | 5.68 | 107% | growth at 10 µM (UACC-257): 110% |
| Cn1cc(C2=C(c3cn(C)c4ccccc34)C(=O)N(O)C2=O)c2ccccc21 | 33% | 96.5% | 101% |  | 92.8% | 104% | 91.4% | 98.4% | < 5.00 | 109% | 103% | 99.9% |  | 105% | 38% | -13% | 103% | 104% | 5.05 | 104% | growth at 10 µM (UACC-257): 88.3% |
| O=C1C2=C(C(=O)N1O)c1cn(c3ccccc13)CCCCCCn1cc2c2ccccc21 | 68% | 110% | 109% | 95.8% | 99.6% | 103% | 106% | 108% | < 5.00 | 113% | 108% | 115% | 100% | 98.2% | 87% | 48% | 113% | 107% | < 5.00 | 107% | growth at 10 µM (UACC-257): 106%; growth at 10 µM (EKVX): 103% |
| O=C(O)CCCCCn1cc(C2=C(c3c[nH]c4ccccc34)C(=O)N(O)C2=O)c2ccccc21 | 53% | 99.4% | 97.5% | 84.9% | 93.9% | 83% | 102% | 88.3% | < 5.00 | 93.4% | 101% | 98.9% | 95.7% | 106% | 19% | 8% | 113% | 95.6% | 5.70 | 105% | growth at 10 µM (UACC-257): 111% |
